Measurements as given in PubChem BioAssay (NCI).
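Following 48 hours of exposure in 96-well plates, responses at five concentrations were used to interpolate endpoints linearly. At the TGI there is no net growth.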

Columns and labels:
Assay in all cases: inhibition of tumour cell growth, NCI panel, 48 h
[1] = tested on: 786-0 renal
[2] = tested on: A498 renal
[3] = tested on: A549 NSCLC
[4] = tested on: ACHN renal
[5] = tested on: CAKI-1 renal
[6] = tested on: CCRF-CEM leukemia
[7] = tested on: COLO 205 colon
[8] = tested on: DU-145 prostate
[9] = tested on: HCC-2998 colon
[10] = tested on: HCT-116 colon
[11] = tested on: HCT-15 colon
[12] = tested on: HOP-62 NSCLC
[13] = tested on: HOP-92 NSCLC
[14] = tested on: HS 578T breast
[15] = tested on: HT29 colon
[16] = tested on: IGROV1 ovarian
[17] = tested on: K-562 leukemia
[18] = tested on: KM12 colon
[19] = tested on: M14 melanoma
[20] = tested on: MALME-3M melanoma
[21] = tested on: MCF7 breast
[22] = tested on: MDA-MB-231 breast
[23] = tested on: MDA-MB-435
[24] = tested on: MDA-N
[25] = tested on: MOLT-4 leukemia
[26] = tested on: NCI-H226 lung
[27] = tested on: NCI-H460 lung
[28] = tested on: NCI-H522 lung
[29] = tested on: NCI/ADR-RES ovarian
[30] = tested on: OVCAR-3 ovarian
[31] = tested on: OVCAR-4 ovarian
[32] = tested on: OVCAR-5 ovarian
[33] = tested on: OVCAR-8 ovarian
[34] = tested on: PC-3 prostate
[35] = tested on: RPMI-8226 leukemia
[36] = tested on: RXF 393 renal
[37] = tested on: SF-268 CNS
[38] = tested on: SF-295 CNS
[39] = tested on: SF-539 CNS
[40] = tested on: SK-MEL-2 melanoma
[41] = tested on: SK-MEL-28 melanoma
[42] = tested on: SK-MEL-5 melanoma
[43] = tested on: SK-OV-3 ovarian
[44] = tested on: SN12C renal
[45] = tested on: SNB-75 CNS
[46] = tested on: SR leukemia
[47] = tested on: SW-620 colon
[48] = tested on: T-47D breast
[49] = tested on: TK-10 renal
[50] = tested on: U251 CNS
[51] = tested on: UACC-257 melanoma
[52] = tested on: BT-549 breast
[53] = tested on: EKVX NSCLC
[54] = tested on: LOX IMVI melanoma
[55] = tested on: NCI-H23 lung
[56] = tested on: SNB-19 CNS
[57] = tested on: UACC-62 melanoma
[58] = tested on: UO-31 renal
[59] = tested on: HL-60(TB) leukemia

## N#Cc1nc(CN2C(=O)c3ccccc3C2=O)oc1N
[1]
  TGI: > 100 µM
[2]
  TGI: > 100 µM
[3]
  TGI: > 100 µM
[4]
  TGI: > 100 µM
[5]
  TGI: > 100 µM
[6]
  TGI: > 100 µM
[7]
  TGI: > 100 µM
[8]
  TGI: > 100 µM
[9]
  TGI: > 100 µM
[10]
  TGI: > 100 µM
[11]
  TGI: > 100 µM
[12]
  TGI: > 100 µM
[13]
  TGI: > 100 µM
[14]
  TGI: > 100 µM
[15]
  TGI: > 100 µM
[16]
  TGI: > 100 µM
[17]
  TGI: > 100 µM
[18]
  TGI: > 100 µM
[19]
  TGI: > 100 µM
[20]
  TGI: > 100 µM
[21]
  TGI: > 100 µM
[22]
  TGI: > 100 µM
[23]
  TGI: > 100 µM
[24]
  TGI: > 100 µM
[25]
  TGI: > 100 µM
[26]
  TGI: > 100 µM
[27]
  TGI: > 100 µM
[28]
  TGI: > 100 µM
[29]
  TGI: > 100 µM
[30]
  TGI: > 100 µM
[31]
  TGI: > 100 µM
[32]
  TGI: > 100 µM
[33]
  TGI: > 100 µM
[34]
  TGI: > 100 µM
[35]
  TGI: > 100 µM
[36]
  TGI: > 100 µM
[37]
  TGI: > 100 µM
[38]
  TGI: > 100 µM
[39]
  TGI: > 100 µM
[40]
  TGI: > 100 µM
[41]
  TGI: > 100 µM
[42]
  TGI: > 100 µM
[43]
  TGI: > 100 µM
[44]
  TGI: > 100 µM
[45]
  TGI: > 100 µM
[46]
  TGI: > 100 µM
[47]
  TGI: > 100 µM
[48]
  TGI: > 100 µM
[49]
  TGI: > 100 µM
[50]
  TGI: > 100 µM
[51]
  TGI: > 100 µM

## O=C(CC1(O)CCCCC1)OC1CCCC1
[1]
  TGI: > 100 µM
[2]
  TGI: > 100 µM
[3]
  TGI: > 100 µM
[4]
  TGI: > 100 µM
[52]
  TGI: > 100 µM
[5]
  TGI: > 100 µM
[7]
  TGI: > 100 µM
[8]
  TGI: > 100 µM
[53]
  TGI: > 100 µM
[10]
  TGI: > 100 µM
[11]
  TGI: > 100 µM
[12]
  TGI: > 100 µM
[13]
  TGI: > 100 µM
[14]
  TGI: > 100 µM
[15]
  TGI: > 100 µM
[16]
  TGI: > 100 µM
[18]
  TGI: > 100 µM
[54]
  TGI: > 100 µM
[19]
  TGI: > 100 µM
[20]
  TGI: > 100 µM
[21]
  TGI: > 100 µM
[22]
  TGI: > 100 µM
[23]
  TGI: > 100 µM
[24]
  TGI: > 100 µM
[26]
  TGI: > 100 µM
[55]
  TGI: > 100 µM
[27]
  TGI: > 100 µM
[28]
  TGI: > 100 µM
[29]
  TGI: > 100 µM
[30]
  TGI: > 100 µM
[31]
  TGI: > 100 µM
[32]
  TGI: > 100 µM
[33]
  TGI: > 100 µM
[34]
  TGI: > 100 µM
[36]
  TGI: > 100 µM
[37]
  TGI: > 100 µM
[38]
  TGI: > 100 µM
[39]
  TGI: > 100 µM
[40]
  TGI: > 100 µM
[42]
  TGI: > 100 µM
[43]
  TGI: > 100 µM
[44]
  TGI: > 100 µM
[56]
  TGI: > 100 µM
[45]
  TGI: > 100 µM
[48]
  TGI: > 100 µM
[49]
  TGI: > 100 µM
[50]
  TGI: > 100 µM
[51]
  TGI: > 100 µM
[57]
  TGI: > 100 µM
[58]
  TGI: > 100 µM

## CN(C)Cc1cc(/C=C/C(=O)c2ccc(Br)cc2)cc(CN(C)C)c1O
[1]
  TGI: 29.9 µM
[2]
  TGI: 27.7 µM
[3]
  TGI: > 100 µM
[4]
  TGI: 24.7 µM
[52]
  TGI: 34.4 µM
[5]
  TGI: 23.8 µM
[6]
  TGI: 25.4 µM
[7]
  TGI: 30.1 µM
[8]
  TGI: 33.7 µM
[53]
  TGI: 55.2 µM
[9]
  TGI: 27.8 µM
[10]
  TGI: 29 µM
[59]
  TGI: 50.6 µM
[12]
  TGI: > 100 µM
[15]
  TGI: 62.4 µM
[16]
  TGI: 23.4 µM
[17]
  TGI: > 100 µM
[18]
  TGI: 29.6 µM
[19]
  TGI: > 100 µM
[20]
  TGI: 31.6 µM
[21]
  TGI: 50.5 µM
[22]
  TGI: 40 µM
[23]
  TGI: 36.8 µM
[24]
  TGI: 32.6 µM
[25]
  TGI: 42.9 µM
[27]
  TGI: 42.6 µM
[29]
  TGI: > 100 µM
[30]
  TGI: 71.4 µM
[32]
  TGI: > 100 µM
[33]
  TGI: > 100 µM
[34]
  TGI: > 100 µM
[35]
  TGI: 26.5 µM
[36]
  TGI: 74.5 µM
[37]
  TGI: 33.4 µM
[38]
  TGI: 38.7 µM
[39]
  TGI: 29.1 µM
[40]
  TGI: 90.5 µM
[41]
  TGI: 34.9 µM
[42]
  TGI: 40 µM
[43]
  TGI: 55.1 µM
[44]
  TGI: 32.3 µM
[56]
  TGI: 48.2 µM
[45]
  TGI: 43.7 µM
[47]
  TGI: 52 µM
[48]
  TGI: 35.4 µM
[49]
  TGI: 25.7 µM
[51]
  TGI: 33.7 µM
[57]
  TGI: 39.1 µM
[58]
  TGI: 23.2 µM

## C=CCCCN(C(=O)c1ccccc1)c1ccc(C(=O)OC)o1
[1]
  TGI: > 100 µM
[2]
  TGI: > 100 µM
[3]
  TGI: > 100 µM
[4]
  TGI: > 100 µM
[5]
  TGI: > 100 µM
[7]
  TGI: > 100 µM
[8]
  TGI: > 100 µM
[53]
  TGI: > 100 µM
[10]
  TGI: > 100 µM
[11]
  TGI: > 100 µM
[59]
  TGI: > 100 µM
[12]
  TGI: > 100 µM
[13]
  TGI: > 100 µM
[14]
  TGI: > 100 µM
[15]
  TGI: > 100 µM
[16]
  TGI: > 100 µM
[18]
  TGI: > 100 µM
[54]
  TGI: > 100 µM
[19]
  TGI: > 100 µM
[20]
  TGI: > 100 µM
[21]
  TGI: > 100 µM
[22]
  TGI: > 100 µM
[24]
  TGI: > 100 µM
[25]
  TGI: > 100 µM
[26]
  TGI: > 100 µM
[55]
  TGI: > 100 µM
[27]
  TGI: > 100 µM
[28]
  TGI: > 100 µM
[29]
  TGI: > 100 µM
[31]
  TGI: > 100 µM
[32]
  TGI: > 100 µM
[33]
  TGI: > 100 µM
[34]
  TGI: > 100 µM
[36]
  TGI: > 100 µM
[37]
  TGI: > 100 µM
[38]
  TGI: > 100 µM
[39]
  TGI: > 100 µM
[40]
  TGI: > 100 µM
[42]
  TGI: > 100 µM
[43]
  TGI: > 100 µM
[44]
  TGI: > 100 µM
[56]
  TGI: > 100 µM
[45]
  TGI: > 100 µM
[48]
  TGI: > 100 µM
[49]
  TGI: > 100 µM
[51]
  TGI: > 100 µM
[57]
  TGI: > 100 µM
[58]
  TGI: > 100 µM
